No end group written: not given here.

The test system of experiment [1] is engineered form of the protein streptavidin. Briefly: Detection of acetic acid contamination of the arginine synthesis reagent: streptavidin signal output on control peptide features. In kind it is binding. As for the experimental part:
In another example according to the present disclosure, a control peptide sequence was used to identify the presence of a contaminant in the arginine synthesis reagent. Preliminarily, it was determined using the methods described herein that the control peptide sequence [N]-GYERPGWKLAG-[C] (SEQ ID NO:19) can be used to detect the presence (or absence) of acetic acid in one or more of the synthesis reagents used to synthesize a population of peptides including the control peptide sequence GYERPGWKLAG (SEQ ID NO:19). In the present example, peptide sequences were synthesized from the C-terminus to the N-terminus. Using this synthesis scheme, it was determined that the amino acid Pro in the 5th position from the N-terminus of SEQ ID NO:19 is susceptible to acetylation in the presence of acetic acid. Without being limited by theory, it is hypothesized that as the direction of synthesis is from the C-terminus to the N-terminus, instead of addition of the amino acid Arg in the 4th position from the N-terminus following addition of the amino acid Pro in the 5th position, acetic acid was able to form an amino acid bond with the terminal proline.
Moreover, the concentration of acetic acid in a synthesis reagent can be correlated with the signal output characteristic of the interaction of the streptavidin receptor with the control peptide feature (SEQ ID NO:19) or the truncated version thereof (SEQ ID NO:20). […] However, the amino acids at the N-terminus should be selected such that there is a detectable difference in the interaction of streptavidin with the alternative control peptide.
To illustrate the detection of varying concentrations of acetic acid in a peptide synthesis reagent, four different NPPOC-protected arginine reagent solutions were prepared with differing concentrations (volume %) of acetic acid. A first arginine solution included no detectable amount of acetic acid (i.e., about 0.00%), a second arginine solution included 0.03% acetic acid, a third arginine solution included a 0.18% acetic acid, and a fourth arginine solution included 0.38% acetic acid. Four different synthetic peptide populations were synthesized using one of the four arginine solutions, and the signal output characteristic of the interaction of the streptavidin receptor with each of the control peptide features (SEQ ID NO:19) or the truncated versions thereof (SEQ ID NO:20) was determined (FIG. 24). […] In the present example, the raw signal output associated with the arginine reagent solution including 0.03% acetic acid was 1000 units, whereas the signal output associated with the arginine reagent solutions including 0.38% acetic acid was about 30,000 units. […]

Experiment [2] concerns the target streptavidin (Streptomyces avidinii, UniProt P22629). Briefly: Streptavidin receptor interaction with control peptide features on a peptide array, fluorescence signal (substitution/deletion profiles). The format is binding. The conditions noted are these: raw fluorescence signal of streptavidin interaction with control peptide; variants at 6th position from N-terminus (FIG. 8A). The source says: A number of receptor molecules 616 are shown as interacting with the peptide feature 606. Interaction of the receptor molecules 616 with the peptide feature 606 can include binding, catalysis of (or participation in) a reaction including peptides within the peptide feature 606, digestion of the peptides within the feature 606, the like, and combinations thereof. In the present example shown in FIGS. 6A-6C, the receptor 616 was used in the identification of the peptide binder sequence represented by the peptides in the feature 606 (i.e., [N]-Gly-Phe-Glu-Asp-Tyr-Leu-Gly-Glu-Tyr-His-Gly-[C] (SEQ ID NO:1)). […] In one aspect, the interaction of the receptor molecules 616 with the population of peptide features 602 on the peptide array 600 can be detected, for example, by labelling the receptor molecules 616 with a detectable tag 618 (FIG. 6C). […]
In a next step 660 of the method 650, the synthetic peptide population is interrogated in the presence of a receptor having an affinity for the peptide binder sequences encoded by the control peptides. […] Thereafter, in a step 662 of the method 650, an output of the peptide-receptor interaction is detected. […] Accordingly, based on the output detected in the step 662, a step 664 of the method 650 can include assessing the fidelity of amino acid incorporation. […]

Sequence of streptavidin (P22629 25-183, species assumed): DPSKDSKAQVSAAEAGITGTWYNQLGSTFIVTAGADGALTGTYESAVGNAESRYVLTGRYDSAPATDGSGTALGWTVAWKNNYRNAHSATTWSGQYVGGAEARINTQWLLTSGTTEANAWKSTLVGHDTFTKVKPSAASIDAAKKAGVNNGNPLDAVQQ

For “*PGWKLAG (Ac-PGWKLAG) [*PGWKLAG (SEQ ID NO:20), *P is acetylated N-terminal Pro]”, in experiment [1] (acetylated truncated peptide on array (FIG. 24)), the “affinity towards an engineered form of the protein streptavidin” value is recorded as “exhibit intrinsic affinity”. As to GWTHPMFEQKG [GWTHPMFEQKG (SEQ ID NO:2)], in experiment [2], the average raw signal was 18,000 units. As for “GYERPGWKLAG [GYERPGWKLAG (SEQ ID NO:19), control peptide to detect acetic acid contamination in synthesis reagents]”, the “increase in raw signal” value in experiment [1] (acetic acid in arginine reagent raised from 0.03% to 0.38%) was 30 fold. In experiment [1] (control peptide features (SEQ ID NO:19 or truncated SEQ ID NO:20) synthesized with arginine reagent solution including 0.03% acetic acid (FIG. 24)), this substance gave a raw signal output of 1000 units. In addition, the signal output result in experiment [1] (control peptide features (SEQ ID NO:19 or truncated SEQ ID NO:20) synthesized with arginine reagent solution including 0.38% acetic acid (FIG. 24)) was “about 30,000 units”.
